Laboratory results reported in PubChem BioAssay (NCI).
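Results reflect a 48-hour exposure of cells in 96-well plates to compound at five concentrations. GI50: concentration for 50% inhibition of growth. The concentration for full growth arrest is given as TGI.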

Key:
Experiment in all cases: NCI anticancer screen, dose series, 48 h
[1] = tested on: 786-0 renal
[2] = tested on: A498 renal
[3] = tested on: A549 NSCLC
[4] = tested on: ACHN renal
[5] = tested on: BT-549 breast
[6] = tested on: CAKI-1 renal
[7] = tested on: COLO 205 colon
[8] = tested on: DU-145 prostate
[9] = tested on: EKVX NSCLC
[10] = tested on: HCC-2998 colon
[11] = tested on: HCT-15 colon
[12] = tested on: HL-60(TB) leukemia
[13] = tested on: HOP-62 NSCLC
[14] = tested on: HOP-92 NSCLC
[15] = tested on: HS 578T breast
[16] = tested on: K-562 leukemia
[17] = tested on: KM12 colon
[18] = tested on: LOX IMVI melanoma
[19] = tested on: M14 melanoma
[20] = tested on: MALME-3M melanoma
[21] = tested on: MCF7 breast
[22] = tested on: MDA-MB-231 breast
[23] = tested on: MDA-MB-435
[24] = tested on: MOLT-4 leukemia
[25] = tested on: NCI-H226 lung
[26] = tested on: NCI-H23 lung
[27] = tested on: NCI-H460 lung
[28] = tested on: NCI-H522 lung
[29] = tested on: NCI/ADR-RES ovarian
[30] = tested on: OVCAR-3 ovarian
[31] = tested on: OVCAR-4 ovarian
[32] = tested on: OVCAR-5 ovarian
[33] = tested on: PC-3 prostate
[34] = tested on: RXF 393 renal
[35] = tested on: SF-268 CNS
[36] = tested on: SF-295 CNS
[37] = tested on: SF-539 CNS
[38] = tested on: SK-MEL-28 melanoma
[39] = tested on: SK-MEL-5 melanoma
[40] = tested on: SK-OV-3 ovarian
[41] = tested on: SN12C renal
[42] = tested on: SNB-19 CNS
[43] = tested on: SNB-75 CNS
[44] = tested on: SW-620 colon
[45] = tested on: T-47D breast
[46] = tested on: TK-10 renal
[47] = tested on: U251 CNS
[48] = tested on: UACC-257 melanoma
[49] = tested on: UACC-62 melanoma
[50] = tested on: UO-31 renal

With `NCCCCCCCCCCCn1c2c(c3ccccc3c1=O)C(=O)c1ccccc1-2` as the molecule, how does the GI50 [1] read?
The GI50 was 19.9 µM.

What about the TGI [1] of the same molecule?
Its TGI is 46.9 µM.

And the GI50 [2]?
Its GI50 is 12.4 µM.

What about the TGI [2] of the same molecule?
The TGI was 36.3 µM.

And the GI50 [3]?
Its GI50 is 20 µM.

What about the TGI [3] of the same molecule?
Its TGI is 74.7 µM.

And the GI50 [4]?
Its GI50 is 3.11 µM.

And the TGI [4]?
Its TGI is 8.11 µM.

And the GI50 [5]?
Its GI50 is 20.3 µM.

What about the TGI [5] of the same molecule?
Its TGI is 41.4 µM.

What about the GI50 [6] of the same molecule?
Its GI50 is 8.62 µM.

What about the TGI [6] of the same molecule?
The TGI was 63.5 µM.

And the GI50 [7]?
The GI50 was 2.24 µM.

What about the TGI [7] of the same molecule?
Its TGI is 5.45 µM.

And the GI50 [8]?
The GI50 was 4.6 µM.

And the TGI [8]?
Its TGI is 14.8 µM.

What about the GI50 [9] of the same molecule?
Its GI50 is 22.5 µM.

And the TGI [9]?
The TGI was 45.7 µM.

And the GI50 [10]?
The GI50 was 2.76 µM.

And the TGI [10]?
Its TGI is 9.72 µM.

And the GI50 [11]?
The GI50 was 5.58 µM.

And the TGI [11]?
Its TGI is 19.4 µM.

And the GI50 [12]?
The GI50 was 6.28 µM.

What about the TGI [12] of the same molecule?
The TGI was 20.4 µM.

What about the GI50 [13] of the same molecule?
Its GI50 is 2.19 µM.

And the TGI [13]?
The TGI was 4.83 µM.

And the GI50 [14]?
The GI50 was 2.65 µM.

What about the TGI [14] of the same molecule?
The TGI was 7.05 µM.

And the GI50 [15]?
Its GI50 is 22.4 µM.

What about the TGI [15] of the same molecule?
Its TGI is 52.6 µM.

What about the GI50 [16] of the same molecule?
The GI50 was 2.31 µM.

And the TGI [16]?
The TGI was 4.58 µM.

And the GI50 [17]?
Its GI50 is 3.95 µM.

And the TGI [17]?
Its TGI is 37.8 µM.

What about the GI50 [18] of the same molecule?
The GI50 was 5 µM.

And the TGI [18]?
The TGI was 21.1 µM.

What about the GI50 [19] of the same molecule?
The GI50 was 5.92 µM.

What about the TGI [19] of the same molecule?
The TGI was 25.7 µM.

What about the GI50 [20] of the same molecule?
Its GI50 is 16.7 µM.

And the TGI [20]?
Its TGI is 53.6 µM.

What about the GI50 [21] of the same molecule?
Its GI50 is 8.63 µM.

What about the TGI [21] of the same molecule?
The TGI was 37.9 µM.

What about the GI50 [22] of the same molecule?
The GI50 was 3.75 µM.

And the TGI [22]?
Its TGI is 15.2 µM.

And the GI50 [23]?
Its GI50 is 11 µM.

What about the TGI [23] of the same molecule?
The TGI was 47.9 µM.

And the GI50 [24]?
Its GI50 is 1.97 µM.

What about the TGI [24] of the same molecule?
Its TGI is 3.93 µM.

And the GI50 [25]?
The GI50 was 25.2 µM.

What about the TGI [25] of the same molecule?
Its TGI is 54.3 µM.

And the GI50 [26]?
The GI50 was 11.6 µM.

And the TGI [26]?
The TGI was 32 µM.

What about the GI50 [27] of the same molecule?
The GI50 was 4.26 µM.

What about the TGI [27] of the same molecule?
The TGI was 29.7 µM.

And the GI50 [28]?
Its GI50 is 3.39 µM.

And the TGI [28]?
Its TGI is 10.4 µM.

And the GI50 [29]?
Its GI50 is 3.2 µM.

What about the TGI [29] of the same molecule?
Its TGI is 17.6 µM.

And the GI50 [30]?
The GI50 was 2.1 µM.

What about the TGI [30] of the same molecule?
Its TGI is 5.96 µM.

What about the GI50 [31] of the same molecule?
The GI50 was 2.86 µM.

What about the TGI [31] of the same molecule?
Its TGI is 8.63 µM.

And the GI50 [32]?
Its GI50 is 2.48 µM.

And the TGI [32]?
Its TGI is 9.01 µM.

And the GI50 [33]?
The GI50 was 2.26 µM.

What about the TGI [33] of the same molecule?
The TGI was 7.12 µM.

What about the GI50 [34] of the same molecule?
The GI50 was 24.3 µM.

What about the TGI [34] of the same molecule?
Its TGI is 82.3 µM.

What about the GI50 [35] of the same molecule?
Its GI50 is 6.05 µM.

What about the TGI [35] of the same molecule?
Its TGI is 49.1 µM.

What about the GI50 [36] of the same molecule?
The GI50 was 2.7 µM.

And the TGI [36]?
The TGI was 7.9 µM.

What about the GI50 [37] of the same molecule?
The GI50 was 20.6 µM.

And the TGI [37]?
Its TGI is 40.2 µM.

What about the GI50 [38] of the same molecule?
The GI50 was 2.27 µM.

And the TGI [38]?
Its TGI is 4.82 µM.

What about the GI50 [39] of the same molecule?
The GI50 was 10.3 µM.

And the TGI [39]?
Its TGI is 29.5 µM.

What about the GI50 [40] of the same molecule?
Its GI50 is 14.3 µM.

And the TGI [40]?
Its TGI is 34.5 µM.

What about the GI50 [41] of the same molecule?
Its GI50 is 1.98 µM.

What about the TGI [41] of the same molecule?
Its TGI is 3.61 µM.

What about the GI50 [42] of the same molecule?
The GI50 was 6.77 µM.

And the TGI [42]?
Its TGI is 38.9 µM.

What about the GI50 [43] of the same molecule?
The GI50 was 2.95 µM.

What about the TGI [43] of the same molecule?
Its TGI is 7.68 µM.

What about the GI50 [44] of the same molecule?
Its GI50 is 1.96 µM.

What about the TGI [44] of the same molecule?
The TGI was 3.76 µM.

What about the GI50 [45] of the same molecule?
The GI50 was 4.42 µM.

And the TGI [45]?
The TGI was 26.6 µM.

What about the GI50 [46] of the same molecule?
Its GI50 is 3.14 µM.

What about the TGI [46] of the same molecule?
The TGI was 8.97 µM.

What about the GI50 [47] of the same molecule?
Its GI50 is 10.2 µM.

And the TGI [47]?
Its TGI is 27.1 µM.

And the GI50 [48]?
The GI50 was 27.7 µM.

And the TGI [48]?
The TGI was 63.7 µM.

What about the GI50 [49] of the same molecule?
The GI50 was 16.9 µM.

What about the TGI [49] of the same molecule?
The TGI was 35 µM.

What about the GI50 [50] of the same molecule?
The GI50 was 2.01 µM.

What about the TGI [50] of the same molecule?
The TGI was 4.07 µM.
